Assay results reported in US20030166653A1, “Novel form of (r)-n-[5-methyl-8-(4-methylpiperazin-1-yl)-1,2,3,4-tetrahydro-2-naphthyl]-4-morpholinobenzamide” (priority 2003, published 2003).
In brackets after ≈: the same amount, converted by molar mass.

Experiments:
Format in all cases: physicochemical
[1] = Stability of solution in 0.1 M HCl, pH 1.1, HPLC assay
Source text: (§1) The stability of [5-Methyl-8-(4-methylpiperazin-1-yl)-1,2,3,4-tetrahydro-2-naphtyl]-4-morpholinobenzamide(=“Base” in tables below) and (R)-N-[5-methyl-8-(4-methylpiperazin-1-yl)-1,2,3,4-tetrahydro-2-naphtyl]-4-morpholinobenzamide monohydrobromide Form A (=“Form A” in tables below), as bulk drug substance and in solutions at different pH levels after exposure to daylight and at elevated temperatures, has been studied. Three solutions were made from each batch of drug substance. One solution in pure water, one in 0.1 mM HCl (pH 4.1) and one in 0.1 M HCl (pH 1.1). The content of [5-Methyl-8-(4-methylpiperazin-1-yl)-1,2,3,4-tetrahydro-2-naphtyl]-4-morpholinobenzamide (=Base) was determined by HPLC, all results are calculated as the base.

[2] = Stability of solution in 0.1 mM HCl, pH 4.1, HPLC assay
Source text: as §1

[3] = Solubility in water by HPLC-analysis; conditions: as the free base by HPLC-analysis
[4] = Stability of bulk drug substance (HPLC purity) in daylight and at 90° C.; conditions: for HPLC Purity (100% - related substances): bulk
Procedure: The stability of [5-Methyl-8-(4-methylpiperazin-1-yl)-1,2,3,4-tetrahydro-2-naphtyl]-4-morpholinobenzamide(=“Base” in tables below) and (R)-N-[5-methyl-8-(4-methylpiperazin-1-yl)-1,2,3,4-tetrahydro-2-naphtyl]-4-morpholinobenzamide monohydrobromide Form A (=“Form A” in tables below), as bulk drug substance and in solutions at different pH levels after exposure to daylight and at elevated temperatures, has been studied. The bulk substances are very stable, both in daylight and at 90° C. There are no significant differences between the HPLC purity of [5-Methyl-8-(4-methylpiperazin-1-yl)-1,2,3,4-tetrahydro-2-naphtyl]-4-morpholinobenzamide (=Base) and (R)-N-[5-methyl-8-(4-methylpiperazin-1-yl)-1,2,3,4-tetrahydro-2-naphtyl]-4-morpholinobenzamide monohydrobromide Form A (=Form A) at the tested conditions.

[5] = Stability in water solutions (pH not adjusted), HPLC assay
Source text: as §1

[6] = daylight RT, 14 days, % of start
[7] = daylight RT, 23 days, % of start

Cc1ccc(N2CCN(C)CC2)c2c1CCC(NC(=O)c1ccc(N3CCOCC3)cc1)C2 (stereo not shown) [Base, [5-Methyl-8-(4-methylpiperazin-1-yl)-1,2,3,4-tetrahydro-2-naphtyl]-4-morpholinobenzamide]
Solution in 0.1 M HCl, pH 1.1, assay ([1]; 5° C., 8 days, % of start): 99% | Solution in 0.1 M HCl, pH 1.1, assay ([1]; 5° C., 14 days, % of start): 100% | Solution in 0.1 M HCl, pH 1.1, assay ([1]; 5° C., 23 days, % of start): 97% | Solution in 0.1 M HCl, pH 1.1, assay ([1]; 5° C., Start): 0.479 mg base/ml | Solution in 0.1 M HCl, pH 1.1, assay ([1]; 5° C., Start, % of start): (100%) | Solution in 0.1 M HCl, pH 1.1, assay ([1]; 60° C., 2 days, % of start): 98% | Solution in 0.1 M HCl, pH 1.1, assay ([1]; 60° C., 8 days, % of start): 96% | Solution in 0.1 M HCl, pH 1.1, assay ([1]; 60° C., 14 days, % of start): 91% | Solution in 0.1 M HCl, pH 1.1, assay ([1]; 60° C., 23 days, % of start): 83% | Solution in 0.1 M HCl, pH 1.1, assay ([1]; 60° C., Start): 0.479 mg base/ml | Solution in 0.1 M HCl, pH 1.1, assay ([1]; 60° C., Start, % of start): (100%) | Solution in 0.1 M HCl, pH 1.1, assay ([1]; Dark RT, 8 days, % of start): 100% | Solution in 0.1 M HCl, pH 1.1, assay ([1]; Dark RT, 14 days, % of start): 100% | Solution in 0.1 M HCl, pH 1.1, assay ([1]; Dark RT, 23 days, % of start): 98% | Solution in 0.1 M HCl, pH 1.1, assay ([1]; Dark RT, Start): 0.479 mg base/ml | Solution in 0.1 M HCl, pH 1.1, assay ([1]; Dark RT, Start, % of start): (100%) | Solution in 0.1 M HCl, pH 1.1, assay [1, 6]: 100% | Solution in 0.1 M HCl, pH 1.1, assay [1, 7]: 98% | Solution in 0.1 M HCl, pH 1.1, assay ([1]; daylight RT, Start): 0.479 mg base/ml | Solution in 0.1 M HCl, pH 1.1, assay ([1]; daylight RT, Start, % of start): (100%) | stability in solution, comparison in words ([1]; pH 1.1, 60° C.): less stable than Form A | stability in solution in words ([1]; pH 1.1, except at 60° C.): good | Solution in 0.1 mM HCl, pH 4.1, assay ([2]; 5° C., 8 days, % of start): 100% | Solution in 0.1 mM HCl, pH 4.1, assay ([2]; 5° C., 14 days, % of start): 99% | Solution in 0.1 mM HCl, pH 4.1, assay ([2]; 5° C., 23 days, % of start): 99% | Solution in 0.1 mM HCl, pH 4.1, assay ([2]; 5° C., Start): 0.0443 mg base/ml | Solution in 0.1 mM HCl, pH 4.1, assay ([2]; 5° C., Start, % of start): (100%) | Solution in 0.1 mM HCl, pH 4.1, assay ([2]; 60° C., 2 days, % of start): 96% | Solution in 0.1 mM HCl, pH 4.1, assay ([2]; 60° C., 8 days, % of start): 93% | Solution in 0.1 mM HCl, pH 4.1, assay ([2]; 60° C., 14 days, % of start): 67% | Solution in 0.1 mM HCl, pH 4.1, assay ([2]; 60° C., 23 days, % of start): 57% | Solution in 0.1 mM HCl, pH 4.1, assay ([2]; 60° C., Start): 0.0443 mg base/ml | Solution in 0.1 mM HCl, pH 4.1, assay ([2]; 60° C., Start, % of start): (100%) | Solution in 0.1 mM HCl, pH 4.1, assay ([2]; Dark RT, 8 days, % of start): 99% | Solution in 0.1 mM HCl, pH 4.1, assay ([2]; Dark RT, 14 days, % of start): 98% | Solution in 0.1 mM HCl, pH 4.1, assay ([2]; Dark RT, 23 days, % of start): 97% | Solution in 0.1 mM HCl, pH 4.1, assay ([2]; Dark RT, Start): 0.0443 mg base/ml | Solution in 0.1 mM HCl, pH 4.1, assay ([2]; Dark RT, Start, % of start): (100%) | Solution in 0.1 mM HCl, pH 4.1, assay [2, 6]: 98% | Solution in 0.1 mM HCl, pH 4.1, assay [2, 7]: 98% | Solution in 0.1 mM HCl, pH 4.1, assay ([2]; daylight RT, Start): 0.0443 mg base/ml | Solution in 0.1 mM HCl, pH 4.1, assay ([2]; daylight RT, Start, % of start): (100%) | stability in solution, comparison in words ([2]; pH 4.1, 60° C. (more pronounced than at pH 1.1)): less stable than Form A | stability in solution in words ([2]; pH 4.1, except at 60° C.): good | solubility in water [3]: 34 µg/mL (≈ 75.8 µM) | HPLC Purity (100% - related substances) ([4]; 90° C., 2 days): 99.9% | HPLC Purity (100% - related substances) ([4]; 90° C., 8 days): 99.9% | HPLC Purity (100% - related substances) ([4]; 90° C., 14 days): 99.9% | HPLC Purity (100% - related substances) ([4]; 90° C., 21 days): 99.9% | HPLC Purity (100% - related substances) ([4]; 90° C., 30 days): 99.9% | HPLC Purity (100% - related substances) ([4]; 90° C., Start): 100% | HPLC Purity (100% - related substances) ([4]; daylight, RT, 8 days): 99.9% | HPLC Purity (100% - related substances) ([4]; daylight, RT, 14 days): 99.9% | HPLC Purity (100% - related substances) ([4]; daylight, RT, 21 days): 99.9% | HPLC Purity (100% - related substances) ([4]; daylight, RT, 30 days): 99.9% | HPLC Purity (100% - related substances) ([4]; daylight, RT, Start): 100% | stability of bulk substance in words ([4]; in daylight and at 90° C.): very stable | Stability in water solutions, assay ([5]; 5° C., 8 days, % of start): 101% | Stability in water solutions, assay ([5]; 5° C., 14 days, % of start): 101% | Stability in water solutions, assay ([5]; 5° C., 23 days, % of start): 102% | Stability in water solutions, assay ([5]; 5° C., Start): 0.00698 mg base/ml | Stability in water solutions, assay ([5]; 5° C., Start, % of start): (100%) | Stability in water solutions, assay ([5]; 60° C., 2 days, % of start): 105% | Stability in water solutions, assay ([5]; 60° C., 8 days, % of start): 104% | Stability in water solutions, assay ([5]; 60° C., 14 days, % of start): 106% | Stability in water solutions, assay ([5]; 60° C., 23 days, % of start): 102% | Stability in water solutions, assay ([5]; 60° C., Start): 0.00698 mg base/ml | Stability in water solutions, assay ([5]; 60° C., Start, % of start): (100%) | Stability in water solutions, assay ([5]; Dark RT, 8 days, % of start): 94% | Stability in water solutions, assay ([5]; Dark RT, 14 days, % of start): 94% | Stability in water solutions, assay ([5]; Dark RT, 23 days, % of start): 95% | Stability in water solutions, assay ([5]; Dark RT, Start): 0.00698 mg base/ml | Stability in water solutions, assay ([5]; Dark RT, Start, % of start): (100%) | Stability in water solutions, assay ([5]; daylight RT, 8 days, % of start): 95% | Stability in water solutions, assay [5, 6]: 94% | Stability in water solutions, assay [5, 7]: 91% | Stability in water solutions, assay ([5]; daylight RT, Start): 0.00698 mg base/ml | Stability in water solutions, assay ([5]; daylight RT, Start, % of start): (100%) | stability in pure water solution, comparison in words ([5]; room temperature, pH not adjusted): less stable than Form A
